Earlier results, collected in article PMC8405607 (British Journal of Cancer, 2021).

Assays:
[1] = design: method as in PMID 24309210, PMID 23084521, PMID 28240971; conditions: liposarcoma trial; cited from earlier work
p53 = tested on: p53; design: method as in PMID 21643018; conditions: prolonged exposure; cited from earlier work

| Structure (SMILES) | patients experiencing grade 4 neutropenia [1] [%] | patients experiencing prolonged grade 4 thrombocytopenia [1] [%] | p53 mutations (p53) |
| --- | --- | --- | --- |
| CCOc1cc(C(C)(C)C)ccc1C1=N[C@@](C)(c2ccc(Cl)cc2)[C@@](C)(c2ccc(Cl)cc2)N1C(=O)N1CCN(CCCS(C)(=O)=O)CC1 [RG7112] | 30 | 15 | – |
| COc1ccc(C2=N[C@@H](c3ccc(Cl)cc3)[C@@H](c3ccc(Cl)cc3)N2C(=O)N2CCNC(=O)C2)c(OC(C)C)c1 [Nutlin-3a] | – | – | increased incidence of p53 mutations |
